Reference: US10738056B2 (Aduro BioTech, Inc., priority 2017, dated 2020)

Target: Human cGAS amino acids 155-522 (Homo sapiens (Human), UniProt Q8N884)
Test: cGAS biochemical activity assay (ATP remaining, Kinase-Glo Max luminescence)
Conditions: human cGAS 155-522, ATP remaining (Kinase-Glo Max); read-out: cGAS IC50

Human cGAS amino acids 155-522, sequence (Q8N884 157-522): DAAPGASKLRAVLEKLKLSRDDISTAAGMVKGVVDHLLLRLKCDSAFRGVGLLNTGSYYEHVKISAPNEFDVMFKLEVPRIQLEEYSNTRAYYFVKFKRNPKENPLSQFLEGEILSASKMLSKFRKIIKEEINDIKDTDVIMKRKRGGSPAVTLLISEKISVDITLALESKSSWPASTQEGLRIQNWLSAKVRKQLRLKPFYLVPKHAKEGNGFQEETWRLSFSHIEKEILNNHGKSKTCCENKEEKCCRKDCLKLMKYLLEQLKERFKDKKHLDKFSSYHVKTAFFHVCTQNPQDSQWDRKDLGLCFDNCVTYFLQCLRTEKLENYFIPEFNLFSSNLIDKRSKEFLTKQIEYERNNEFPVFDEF

SMILES | IC50 [µM]
Cc1[nH]c2c(-c3ccccc3)c(C(F)(F)F)nn2c(=O)c1-c1nnc(C2CCCCC2)s1 [Compound D1006, 6-(5-cyclohexyl-1,3,4-thiadiazol-2-yl)-5-methyl-3-phenyl-2-(trifluoromethyl)pyrazolo[1,5-a]pyrimidin-7(4H)-one] | < 20
Cc1[nH]c2c(C(C)C)c(C(F)(F)F)nn2c(=O)c1Cc1ccccc1 [Compound C1268, 6-benzyl-3-isopropyl-5-methyl-2-(trifluoromethyl)pyrazolo[1,5-a]pyrimidin-7(4H)-one] | > 250
Cc1[nH]c2c(-c3ccccc3)c(C(F)(F)F)nn2c(=O)c1C(=O)Nc1ccccc1N1CCCC1 [Compound A1054, 5-methyl-7-oxo-3-phenyl-N-(2-(pyrrolidin-1-yl)phenyl)-2-(trifluoromethyl)-4,7-dihydropyrazolo[1,5-a]pyrimidine-6-carboxamide] | 20 to 250
Cc1[nH]c2c(-c3ccccc3)c(C(F)(F)F)nn2c(=O)c1-c1nnc(C2CCCNC2)o1 (stereo not shown) [Compound D1036, 5-methyl-3-phenyl-6-(5-(piperidin-3-yl)-1,3,4-oxadiazol-2-yl)-2-(trifluoromethyl)pyrazolo[1,5-a]pyrimidin-7(4H)-one] | 20 to 250
Cc1[nH]c2c(-c3ccccc3)c(C(F)(F)F)nn2c(=O)c1-c1nnc(C2CCN(C(=O)OC(C)(C)C)CC2)o1 [Compound D1044, tert-butyl 4-(5-(5-methyl-7-oxo-3-phenyl-2-(trifluoromethyl)-4,7-dihydropyrazolo[1,5-a]pyrimidin-6-yl)-1,3,4-oxadiazol-2-yl)piperidine-1-carboxylate] | 20 to 250
Cc1ccc(CN2CCN(C(=O)Cc3c(C)[nH]c4c(-c5ccccc5)c(C(F)(F)F)nn4c3=O)CC2)cc1 [Compound B1009, 5-methyl-6-(2-(4-(4-methylbenzyl)piperazin-1-yl)-2-oxoethyl)-3-phenyl-2-(trifluoromethyl)pyrazolo[1,5-a]pyrimidin-7(4H)-one] | > 250
Cc1[nH]c2c(-c3ccccc3)c(C(F)(F)F)nn2c(=O)c1C(=O)Nc1ccccc1OC1CCCC1 [Compound A1044, N-(2-(cyclopentyloxy)phenyl)-5-methyl-7-oxo-3-phenyl-2-(trifluoromethyl)-4,7-dihydropyrazolo[1,5-a]pyrimidine-6-carboxamide] | 20 to 250
Cc1[nH]c2c(-c3ccccc3)c(C(F)(F)F)nn2c(=O)c1C(=O)Nc1ccn(C2CCCCC2)n1 [Compound A1041, N-(1-cyclohexyl-1H-pyrazol-3-yl)-5-methyl-7-oxo-3-phenyl-2-(trifluoromethyl)-4,7-dihydropyrazolo[1,5-a]pyrimidine-6-carboxamide] | 20 to 250
Cc1[nH]c2c(C3CC3)c(C(F)(F)F)nn2c(=O)c1Cc1ccccc1 [Compound C1264, 6-benzyl-3-cyclopropyl-5-methyl-2-(trifluoromethyl)pyrazolo[1,5-a]pyrimidin-7(4H)-one] | > 250
COc1cccc2oc(-c3c(C)[nH]c4c(-c5ccccc5)c(C5CC5)nn4c3=O)nc12 [Compound C1242, 2-cyclopropyl-6-(4-methoxybenzo[d]oxazol-2-yl)-5-methyl-3-phenylpyrazolo[1,5-a]pyrimidin-7(4H)-one] | > 250
Cc1[nH]c2c(-c3ccccc3)c(C(F)(F)F)nn2c(=O)c1-c1nnc(N2CCOCC2)o1 [Compound D1009, 5-methyl-6-(5-morpholino-1,3,4-oxadiazol-2-yl)-3-phenyl-2-(trifluoromethyl)pyrazolo[1,5-a]pyrimidin-7(4H)-one] | 20 to 250
Cc1[nH]c2c(-c3ccccc3)c(C(F)(F)F)nn2c(=O)c1C(=O)Nc1cccc(OCc2ccccc2)c1 [Compound A1086, N-(3-(benzyloxy)phenyl)-5-methyl-7-oxo-3-phenyl-2-(trifluoromethyl)-4,7-dihydropyrazolo[1,5-a]pyrimidine-6-carboxamide] | < 20
COc1cccc2oc(-c3c(C4CCC(C(=O)O)C4)[nH]c4c(-c5ccccc5)c(C(F)(F)F)nn4c3=O)nc12 (stereo not shown) [Compound C1239, 3-(6-(4-methoxybenzo[d]oxazol-2-yl)-7-oxo-3-phenyl-2-(trifluoromethyl)-4,7-dihydropyrazolo[1,5-a]pyrimidin-5-yl)cyclopentane-1-carboxylic acid] | < 20
Cc1[nH]c2c(-c3ccccc3)c(C(F)(F)F)nn2c(=O)c1-c1nnc(C2CCCCN2C(=O)OC(C)(C)C)o1 (stereo not shown) [Compound D1045, tert-butyl 2-(5-(5-methyl-7-oxo-3-phenyl-2-(trifluoromethyl)-4,7-dihydropyrazolo[1,5-a]pyrimidin-6-yl)-1,3,4-oxadiazol-2-yl)piperidine-1-carboxylate] | 20 to 250
Cc1[nH]c2c(-c3ccccc3)c(C(F)(F)F)nn2c(=O)c1C(=O)N[C@H]1CCCC[C@H]1O [Compound A1092, N-((1S,2R)-2-hydroxycyclohexyl)-5-methyl-7-oxo-3-phenyl-2-(trifluoromethyl)-4,7-dihydropyrazolo[1,5-a]pyrimidine-6-carboxamide] | 20 to 250
Cc1[nH]c2c(-c3ccccc3)c(C(F)(F)F)nn2c(=O)c1C1=N[C@H](C(=O)O)CO1 [Compound C1192, (S)-2-(5-methyl-7-oxo-3-phenyl-2-(trifluoromethyl)-4,7-dihydropyrazolo[1,5-a]pyrimidin-6-yl)-4,5-dihydrooxazole-4-carboxylic acid] | < 20

Second part, the molecule after the results:

IC50 [µM] | SMILES
20 to 250 | CNC(=O)COCc1[nH]c2c(-c3ccccc3)c(C(F)(F)F)nn2c(=O)c1-c1nc2c(OC)cccc2o1 [Compound C1199, 2-((6-(4-methoxybenzo[d]oxazol-2-yl)-7-oxo-3-phenyl-2-(trifluoromethyl)-4,7-dihydropyrazolo[1,5-a]pyrimidin-5-yl)methoxy)-N-methylacetamide]
< 20 | Cc1[nH]c2c(-c3ccccc3)c(C(F)(F)F)nn2c(=O)c1-c1nnc(C(N)=O)o1 [Compound D1066, 5-(5-methyl-7-oxo-3-phenyl-2-(trifluoromethyl)-4,7-dihydropyrazolo[1,5-a]pyrimidin-6-yl)-1,3,4-oxadiazole-2-carboxamide]
20 to 250 | COc1cccc2oc(-c3c(C(C)=O)[nH]c4c(-c5ccccc5)c(C(F)(F)F)nn4c3=O)nc12 [Compound C1144, 5-acetyl-6-(4-methoxybenzo[d]oxazol-2-yl)-3-phenyl-2-(trifluoromethyl)pyrazolo[1,5-a]pyrimidin-7(4H)-one]
20 to 250 | COc1cccc2c1nc(-c1c(C)[nH]c3c(-c4ccccc4)c(C(F)(F)F)nn3c1=O)n2CCO [Compound C1201, 6-(1-(2-hydroxyethyl)-4-methoxy-1H-benzo[d]imidazol-2-yl)-5-methyl-3-phenyl-2-(trifluoromethyl)pyrazolo[1,5-a]pyrimidin-7(4H)-one]
< 20 | COc1cccc2oc(-c3c(C)[nH]c4c(-c5cccc(C)c5)c(C(F)(F)F)nn4c3=O)nc12 [Compound C1172, 6-(4-methoxybenzo[d]oxazol-2-yl)-5-methyl-3-(m-tolyl)-2-(trifluoromethyl)pyrazolo[1,5-a]pyrimidin-7(4H)-one]
20 to 250 | Cc1[nH]c2c(-c3ccccc3)c(C(F)(F)F)nn2c(=O)c1-c1nc2ccccc2n1CC1CCCC1 [Compound C1235, 6-(1-(cyclopentylmethyl)-1H-benzo[d]imidazol-2-yl)-5-methyl-3-phenyl-2-(trifluoromethyl)pyrazolo[1,5-a]pyrimidin-7(4H)-one]
20 to 250 | Cc1[nH]c2c(-c3ccccc3)c(C(F)(F)F)nn2c(=O)c1-c1cccc(Cl)c1 [Compound C1004, 6-(3-chlorophenyl)-5-methyl-3-phenyl-2-(trifluoromethyl)pyrazolo[1,5-a]pyrimidin-7(4H)-one]
< 20 | COc1cccc(NCCc2c(C)[nH]c3c(-c4ccccc4)c(C(F)(F)F)nn3c2=O)c1 [Compound B1015, 6-(2-((3-methoxyphenyl)amino)ethyl)-5-methyl-3-phenyl-2-(trifluoromethyl)pyrazolo[1,5-a]pyrimidin-7(4H)-one]
20 to 250 | COc1ccc(NC(=O)c2c(C)[nH]c3c(-c4ccccc4)c(C(F)(F)F)nn3c2=O)cc1 [Compound A1001, N-(4-methoxyphenyl)-5-methyl-7-oxo-3-phenyl-2-(trifluoromethyl)-4,7-dihydropyrazolo[1,5-a]pyrimidine-6-carboxamide]
20 to 250 | Cc1[nH]c2c(-c3ccccc3)c(C(F)(F)F)nn2c(=O)c1-c1cccnc1 [Compound C1003, 5-methyl-3-phenyl-6-(pyridin-3-yl)-2-(trifluoromethyl)pyrazolo[1,5-a]pyrimidin-7(4H)-one]
> 250 | Cc1[nH]c2c(-c3ccccc3)c(C(F)(F)F)nn2c(=O)c1-c1nnc(-c2ccccc2)o1 [Compound D1011, 5-methyl-3-phenyl-6-(5-phenyl-1,3,4-oxadiazol-2-yl)-2-(trifluoromethyl)pyrazolo[1,5-a]pyrimidin-7(4H)-one]
< 20 | COc1cccn2cc(-c3c(C)[nH]c4c(-c5ccccc5)c(C(F)(F)F)nn4c3=O)nc12 [Compound C1044, 6-(8-methoxyimidazo[1,2-a]pyridin-2-yl)-5-methyl-3-phenyl-2-(trifluoromethyl)pyrazolo[1,5-a]pyrimidin-7(4H)-one]
20 to 250 | Cc1[nH]c2c(-c3ccccc3)c(C(F)(F)F)nn2c(=O)c1C(=O)Nc1ccnn1C [Compound A1078, 5-methyl-N-(1-methyl-1H-pyrazol-5-yl)-7-oxo-3-phenyl-2-(trifluoromethyl)-4,7-dihydropyrazolo[1,5-a]pyrimidine-6-carboxamide]
< 20 | Cc1[nH]c2c(-c3ccccc3)c(C(F)(F)F)nn2c(=O)c1C(=O)Nc1ccccn1 [Compound A1017, 5-methyl-7-oxo-3-phenyl-N-(pyridin-2-yl)-2-(trifluoromethyl)-4,7-dihydropyrazolo[1,5-a]pyrimidine-6-carboxamide]
20 to 250 | Cc1[nH]c2c(-c3ccccc3)c(C(F)(F)F)nn2c(=O)c1C(=O)Nc1ccccc1N(C)C [Compound A1053, N-(2-(dimethylamino)phenyl)-5-methyl-7-oxo-3-phenyl-2-(trifluoromethyl)-4,7-dihydropyrazolo[1,5-a]pyrimidine-6-carboxamide]
